Key:
Echinochloa oryzicola = experiment: Submerged foliar treatment test (Test Example 3); type: in vivo; details: water depth 3 cm, cotyledon to 1-leaf stage, wettable powder, active ingredient 10 g/a, 28th day from the treatment
Method: (§1) The herbicidal effect was evaluated in terms of herbicidal rate obtained from the following equation: Herbicidal rate (%)=[1−(Weight of weeds above the ground in a treated plot)/(Weight of weeds above the ground in a non-treated plot)]×100
(§2) and was expressed by herbicidal index according to the following criteria.
(§3) Alluvial soil from a paddy field was put in a resin-made vat having an area of 200 cm^2. After fertilization, seeds of Echinochloa oryzicola, Rotala indica and Scirpus juncoides were cast on the soil and uniformly covered with the soil, and water was poured onto the soil to keep a water depth of 3 cm. Then, cultivation was continued in a greenhouse, and when the weeds to be tested reached the cotyledon stage to 1-leaf stage, the wettable powder obtained in Formulation Example 1 was diluted with water and a predetermined amount thereof was added dropwise uniformly to the weeds by means of a pipette to give 10 g of the active ingredient per an are. Thereafter, cultivation was further continued in the greenhouse, and the herbicidal effect was examined on the 28th day from the treatment. The results obtained are shown in Table 9 (the compound numbers in Table 9 correspond to those in Tables 1 to 6).

Rotala indica = experiment: Submerged foliar treatment test (Test Example 3); type: in vivo; details: water depth 3 cm, cotyledon to 1-leaf stage, wettable powder, active ingredient 10 g/a, 28th day from the treatment
Method: as §1, §2, §3

Scirpus juncoides = experiment: Submerged foliar treatment test (Test Example 3); type: in vivo; details: water depth 3 cm, cotyledon to 1-leaf stage, wettable powder, active ingredient 10 g/a, 28th day from the treatment
Method: as §1, §2, §3

Brassica juncea = experiment: Field foliar treatment test (Test Example 1); type: in vivo; details: foliar spray at 1.0- to 2.0-leaf stage, wettable powder, active ingredient 10 g/a, 21st day from the treatment
Method: (§4) Alluvial soil from a field was put in a resin-made vat having an area of 200 cm^2. After fertilization, the seeds of Echinochloa crus-galli, Brassica juncea, and Ipomoea purpurea were cast on the soil and uniformly covered with the soil. Then, cultivation was continued in a greenhouse, and when the weeds to be tested reached the 1.0- to 2.0-leaf stage, the wettable powder obtained in Formulation Example 1 was diluted with water and a predetermined amount thereof was sprayed uniformly to the weeds by means of a small-sized power pressure spray to give 10 g of the active ingredient per an are. Thereafter, cultivation was further continued in the greenhouse, and the herbicidal effect was examined on the 21st day from the treatment. The results obtained are shown in Table 7 (the compound numbers in Table 7 correspond to those in Table 1 to 6). The herbicidal effect was evaluated in terms of herbicidal rate obtained from the following equation: Herbicidal rate (%)=[1−(Weight of weeds above the ground in a treated plot)/(Weight of weeds above the ground in a non-treated plot)]×100 and was expressed by herbicidal index according to the following criteria. [table]

Echinochloa crus-galli = experiment: Field foliar treatment test (Test Example 1); type: in vivo; details: foliar spray at 1.0- to 2.0-leaf stage, wettable powder, active ingredient 10 g/a, 21st day from the treatment
Method: as §4

Ipomoea purpurea = experiment: Field foliar treatment test (Test Example 1); type: in vivo; details: foliar spray at 1.0- to 2.0-leaf stage, wettable powder, active ingredient 10 g/a, 21st day from the treatment
Method: as §4

SMILES | melting point [°C] | Herbicidal effect Echinochloa oryzicola (herbicidal index) (Echinochloa oryzicola) | Herbicidal effect Rotala indica (herbicidal index) (Rotala indica) | Herbicidal effect Scirpus juncoides (herbicidal index) (Scirpus juncoides) | Herbicidal effect Brassica juncea (herbicidal index) (Brassica juncea) | Herbicidal effect Echinochloa crus-galli (herbicidal index) (Echinochloa crus-galli) | Herbicidal effect Ipomoea purpurea (herbicidal index) (Ipomoea purpurea)
Cc1cc2c(-c3cccc(Cl)c3)nc(Cl)nc2s1 [Compound No. 5-15, 2-chloro-4-(3-chlorophenyl)-6-methylthieno[2,3-d]pyrimidine] | 118 to 120 | 5 (91 to 100) | 5 (91 to 100) | 3 (51 to 70) | – | – | –
Cc1cc2c(-c3cccc(C(F)(F)F)c3)nc(C#N)nc2s1 [Compound No. 6-10, 2-cyano-6-methyl-4-[3-(trifluoromethyl)phenyl]thieno[2,3-d]pyrimidine] | 121 to 122 | 5 (91 to 100) | 5 (91 to 100) | 4 (71 to 90) | – | – | –
Cc1cc2c(Oc3cccc(C(F)(F)F)c3)nc(OCC(F)(F)F)nc2s1 [Compound No. 6-129, 6-methyl-2-(2,2,2-trifluoroethoxy)-4-[3-(trifluoromethyl)phenoxy]thieno[2,3-d]pyrimidine] | 124 to 125 | 5 (91 to 100) | 4 (71 to 90) | 2 (31 to 50) | – | – | –
Cc1cc2c(Oc3cccc(C(F)(F)F)c3)nc(CCC(F)(F)F)nc2s1 [Compound No. 6-130, 6-methyl-4-[3-(trifluoromethyl)phenoxy]-2-(3,3,3-trifluoropropyl)thieno[2,3-d]pyrimidine] | 85 | – | – | – | 4 (71 to 90) | 2 (31 to 50) | 3 (51 to 70)
Cc1cc2nc(OC(C)C)nc(-c3cccc(C(F)(F)F)c3)c2s1 [Compound No. 6-231, 2-isopropoxy-6-methyl-4-[3-(trifluoromethyl)phenyl]thieno[3,2-d]pyrimidine] | 106 | – | – | – | 5 (91 to 100) | 4 (71 to 90) | 5 (91 to 100)

More lines, main results first:

melting point [°C] | SMILES | Herbicidal effect Echinochloa oryzicola (herbicidal index) (Echinochloa oryzicola) | Herbicidal effect Rotala indica (herbicidal index) (Rotala indica) | Herbicidal effect Scirpus juncoides (herbicidal index) (Scirpus juncoides) | Herbicidal effect Brassica juncea (herbicidal index) (Brassica juncea) | Herbicidal effect Echinochloa crus-galli (herbicidal index) (Echinochloa crus-galli) | Herbicidal effect Ipomoea purpurea (herbicidal index) (Ipomoea purpurea)
40 to 41 | Cc1cc2c(-c3cccc(C(F)(F)F)c3)nc(COCC(F)(F)F)nc2s1 [Compound No. 6-17, 6-methyl-2-[(2,2,2-trifluoroethoxy)methyl]-4-[3-(trifluoromethyl)phenyl]thieno[2,3-d]pyrimidine] | 5 (91 to 100) | 5 (91 to 100) | 3 (51 to 70) | – | – | –
134 to 136 | Cc1cc2c(-c3cccc(C(F)(F)F)c3)nc(-c3ccc(C(F)(F)F)cc3)nc2s1 [Compound No. 6-18, 6-methyl-2-[4-(trifluoromethyl)phenyl]-4-[3-(trifluoromethyl)phenyl]thieno[2,3-d]pyrimidine] | 3 (51 to 70) | 4 (71 to 90) | 1 (6 to 30) | – | – | –
